Results taken from US20170158636A1, “FUNCTIONALISED AND SUBSTITUTED CARBAZOLES AS ANTI-CANCER AGENTS” (Novogen Ltd., priority 2014, published 2017).

Columns and labels:
Test in all cases: Anti-proliferative activity, cell-titre luminescent viability assay
Type in all cases: cell-based
[1] = system: SK-Mel-28 melanoma cells; conditions: Homo sapiens, 72 hours exposure
Method: (§1) The ability of compounds 1001-1018 and 1037-1039 to inhibit the proliferation of cancer cells representative of neuroblastoma, melanoma, prostate cancer, colorectal cancer, non-small cell lung carcinoma, and triple negative breast cancer was assessed (Table 1).
(§2) Briefly, a pre-determined number of cells as calculated from cell growth assays for each of the cell lines employed were seeded into their respective culture medium (using ATCC culture parameters—http://www.atcc.org) and cultured for 24 hours at 37° C. and 5% CO2 in 96-well culture plates. Once attached, each cell line was then exposed to increasing concentrations of each respective analogue (0.03, 0.3, 3 and 30 μM for compounds 1001-13 and 1015-18; 0.1, 0.3, 1, 3, 10 and 30 μM for compounds 1014 and 1037-39), cultured for a further 72 hours and exposed to cell-titre luminescent reagent (100 μL/well) for a further 30 minutes) to measure cell viability. Luminescence was captured using an EnVision multilabel reader and the data for each analogue concentration compared against no treatment control. For compounds 1001-13 and 1015-18, semi-log plots of Percent of Control versus concentration were prepared and IC50 determined using linear regression analysis. For compounds 1014 and 1037-39, cell viability was normalized to control (vehicle alone) and dose-response curves, and half maximal effective concentration (EC50) values were determined using Graph Pad Prism 6 (nonlinear regression sigmoidal dose-response variable slope).

[2] = system: A549 lung (NSLC) cancer cells; conditions: Homo sapiens, 72 hours exposure
Method: as §1, §2

[3] = system: PC3 prostate cancer cells; conditions: 72 hours exposure
Method: as §1, §2

[4] = system: DU145 prostate cancer cells; conditions: Homo sapiens, DU-145, 72 hours exposure
Method: as §1, §2

[5] = system: MDA-MB-231 breast cancer cells; conditions: Homo sapiens, 72 hours exposure
Method: as §1, §2

[6] = system: CaCo2 colorectal cancer cells; conditions: Homo sapiens, Caco-2, 72 hours exposure
Method: as §1, §2

[7] = system: SK-N-SH neuroblastoma cells; conditions: Homo sapiens, 72 hours exposure
Method: as §1, §2

| Compound | IC50 [1] | IC50 [2] | IC50 [3] | IC50 [4] | IC50 [5] | IC50 [6] | IC50 [7] |
| --- | --- | --- | --- | --- | --- | --- | --- |
| CCN(CC)CCCn1c2ccccc2c2cc(C(=O)N3CCN(CCc4cccc(F)c4)CC3)ccc21 [Compound 1010, (9-(3-(diethylamino)propyl)-9H-carbazol-3-yl)(4-(3-fluorophenethyl)piperazin-1-yl)methanone] | 3.9 µM | 3.6 µM | 3.7 µM | 3.7 µM | 4.2 µM | 4.1 µM | 3.3 µM |
| COc1ccc(CCN2CCN(C(=O)c3ccc4c(c3)c3ccccc3n4CCCN3CCN(C)CC3)CC2)cc1 [Compound 1014, (4-(4-methoxyphenethyl)piperazin-1-yl)(9-(3-(4-methylpiperazin-1-yl)propyl)-9H-carbazol-3-yl)methanone] | 5.1 µM | 31.1 µM | 3.8 µM | 40.2 µM | 10.2 µM | 13.8 µM | 8.8 µM |
| COc1cccc(CCN2CCN(C(=O)c3ccc4c(c3)c3ccccc3n4CCCN(C)C)CC2)c1 [Compound 1006, (9-(3-(dimethylamino)propyl)-9H-carbazol-3-yl)(4-(3-methoxyphenethyl)piperazin-1-yl)methanone] | 3.5 µM | 3.5 µM | 5.2 µM | 4.4 µM | 3 µM | 4.1 µM | 3.4 µM |
| O=C(c1ccc2[nH]c3ccccc3c2c1)N1CCN(CCc2ccc(F)cc2)CC1 [Compound 1037, (9H-carbazol-3-yl)(4-(4-fluorophenethyl)piperazin-1-yl)methanone] | > 30 µM | 16.3 µM | > 30 µM | > 30 µM | > 30 µM | > 30 µM | > 30 µM |
| CCN(CC)CCCn1c2ccccc2c2cc(C(=O)N3CCN(CCc4cccc(OC)c4)CC3)ccc21 [Compound 1011, (9-(3-(diethylamino)propyl)-9H-carbazol-3-yl)(4-(3-methoxyphenethyl)piperazin-1-yl)methanone] | 3.4 µM | 3.8 µM | 5.5 µM | 4.5 µM | 2.5 µM | 4 µM | 4.2 µM |
| CCN(CC)CCCn1c2ccccc2c2cc(C(=O)N3CCN(CCc4ccc5c(c4)OCO5)CC3)ccc21 [Compound 1009, (4-(2-(benzo[d][1,3]dioxol-5-yl)ethyl)piperazin-1-yl)(9-(3-(diethylamino)propyl)-9H-carbazol-3-yl)methanone] | 4.1 µM | 4 µM | 4.6 µM | 12.1 µM | 4.5 µM | 5 µM | 4.8 µM |
| O=C(c1ccc2c(c1)c1ccccc1n2CCc1ccc(F)cc1)N1CCN(CCc2ccc(F)cc2)CC1 [Compound 1039, (9-(4-fluorophenethyl)-9H-carbazol-3-yl)(4-(4-fluorophenethyl)piperazin-1-yl)methanone] | > 30 µM | > 30 µM | > 30 µM | > 30 µM | > 30 µM | > 30 µM | > 30 µM |
| CCN(CC)CCCn1c2ccccc2c2cc(C(=O)N3CCN(CCc4ccccc4)CC3)ccc21 [Compound 1012, (9-(3-(diethylamino)propyl)-9H-carbazol-3-yl)(4-phenethylpiperazin-1-yl)methanone] | 2.8 µM | 3.2 µM | 4.1 µM | 3.5 µM | 3.1 µM | 2.8 µM | 2.9 µM |
| CCN(CC)CCCn1c2ccccc2c2cc(C(=O)N3CCN(CCc4ccc(OC)cc4)CC3)ccc21 [Compound 1008, (9-(3-(diethylamino)propyl)-9H-carbazol-3-yl)(4-(4-methoxyphenethyl)piperazin-1-yl)methanone] | 2.5 µM | 3.8 µM | 4.8 µM | 4 µM | 3.5 µM | 6.7 µM | 3.3 µM |
| COc1cccc(CCN2CCN(C(=O)c3ccc4c(c3)c3ccccc3n4CCCN3CCN(C)CC3)CC2)c1 [Compound 1017, (4-(3-methoxyphenethyl)piperazin-1-yl)(9-(3-(4-methylpiperazin-1-yl)propyl)-9H-carbazol-3-yl)methanone] | 4 µM | 3.6 µM | 5.2 µM | 6.6 µM | 3.7 µM | 4.6 µM | 4.7 µM |
| CN1CCN(CCCn2c3ccccc3c3cc(C(=O)N4CCN(CCc5ccc6c(c5)OCO6)CC4)ccc32)CC1 [Compound 1015, (4-(2-(benzo[d][1,3]dioxol-5-yl)ethyl)piperazin-1-yl)(9-(3-(4-methylpiperazin-1-yl)propyl)-9H-carbazol-3-yl)methanone] | 3.4 µM | 4 µM | 5.3 µM | 15.5 µM | 4.4 µM | 5.5 µM | 5.1 µM |
| COc1ccc(CCN2CCN(C(=O)c3ccc4c(c3)c3ccccc3n4CCCN(C)C)CC2)cc1 [Compound 1003, (9-(3-(dimethylamino)propyl)-9H-carbazol-3-yl)(4-(4-methoxyphenethyl)piperazin-1-yl)methanone] | 3.2 µM | 3.4 µM | 3.1 µM | 3.6 µM | 4.3 µM | 3.7 µM | 3.1 µM |
| CN(C)CCCn1c2ccccc2c2cc(C(=O)N3CCN(CCc4ccc(F)cc4)CC3)ccc21 [Compound 1002, (9-(3-(dimethylamino)propyl)-9H-carbazol-3-yl)(4-(4-fluorophenethyl)piperazin-1-yl)methanone] | 3.7 µM | 3.4 µM | 6.1 µM | 3.7 µM | 4.5 µM | 3.7 µM | 3.4 µM |
| CN(C)CCCn1c2ccccc2c2cc(C(=O)N3CCN(CCc4cccc(F)c4)CC3)ccc21 [Compound 1005, (9-(3-(dimethylamino)propyl)-9H-carbazol-3-yl)(4-(3-fluorophenethyl)piperazin-1-yl)methanone] | 3.5 µM | 3.5 µM | 3.3 µM | 3.2 µM | 4.1 µM | 3.8 µM | 3.3 µM |
| O=C(c1ccc2c(c1)c1ccccc1n2CCCCl)N1CCN(CCc2ccc(F)cc2)CC1 [Compound 1038, (9-(3-chloropropyl)-9H-carbazol-3-yl)(4-(4-fluorophenethyl)piperazin-1-yl)methanone] | > 30 µM | > 30 µM | > 30 µM | > 30 µM | > 30 µM | > 30 µM | > 30 µM |
